Measured values taken from the supplement of paper PMC10307832.

Key:
Assay in all cases: relative viability (nuclei count vs DMSO), 5 days (fraction); higher = more cells survive
[1] = compound: c1ccc2c(CCNc3ccc(Nc4ccncc4)cc3)c[nH]c2c1 [Serdemetan] + C[C@@H](Oc1cc(-c2cnn(C3CCNCC3)c2)cnc1N)c1c(Cl)ccc(F)c1Cl [Crizotinib] (partner 1 µM)
Outline: (§1)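 For relative viability, nuclei counts in treated wells were divided by those in vehicle wells. Lung cancer cell lines had been pin-tool dosed in 1536-well plates the day after seeding and cultured for 5 days, then fixed and stained in one step (final 0.05% Triton X-100, 1% formaldehyde, 1 ug/ml Hoechst) and imaged at 4×. Doses were one drug alone or a fixed anchor-drug dose plus five library-drug doses (not always all listed) in √10 steps, and values are duplicate-plate medians.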

[2] = compound: C1CC(C2=C(C1)C3=C(N2)C=CC(=C3)Cl)C(=O)N [Selisistat] + O=C(c1cc(Cc2n[nH]c(=O)c3ccccc23)ccc1F)N1CCN(C(=O)C2CC2)CC1 [Olaparib] (partner 8 µM)
Outline: as §1

[3] = compound: c1ccc2c(CCNc3ccc(Nc4ccncc4)cc3)c[nH]c2c1 [Serdemetan] + COc1cc2c(Oc3ccc(NC(=O)C4(C(=O)Nc5ccc(F)cc5)CC4)cc3F)ccnc2cc1OCCCN1CCOCC1 [Foretinib] (partner 0.25 µM)
Outline: as §1

[4] = compound: C1CC(C2=C(C1)C3=C(N2)C=CC(=C3)Cl)C(=O)N [Selisistat] + NC(=O)Nc1cc(-c2cccc(F)c2)sc1C(=O)N[C@H]1CCCNC1 [AZD7762] (partner 0.2 µM)
Outline: as §1

| Cell Line | relative viability ([1]; first compound 0.04 µM) | relative viability ([1]; first compound 0.1265 µM) | relative viability ([1]; first compound 0.4 µM) | relative viability ([1]; first compound 1.265 µM) | relative viability ([1]; first compound 4 µM) | relative viability ([2]; first compound 0.4 µM) | relative viability ([2]; first compound 1.265 µM) | relative viability ([2]; first compound 4 µM) | relative viability ([2]; first compound 12.65 µM) | relative viability ([2]; first compound 40 µM) | relative viability ([3]; first compound 0.04 µM) | relative viability ([3]; first compound 0.1265 µM) | relative viability ([3]; first compound 0.4 µM) | relative viability ([3]; first compound 1.265 µM) | relative viability ([3]; first compound 4 µM) | relative viability ([4]; first compound 0.4 µM) | relative viability ([4]; first compound 1.265 µM) | relative viability ([4]; first compound 12.65 µM) | relative viability ([4]; first compound 40 µM) | relative viability ([4]; first compound 4 µM) |
| --- | --- | --- | --- | --- | --- | --- | --- | --- | --- | --- | --- | --- | --- | --- | --- | --- | --- | --- | --- | --- |
| EPLC-272H | 0.939 | 0.692 | 0.868 | 0.612 | 0.837 | 0.888 | 0.787 | 0.626 | 0.749 | 0.657 | 0.881 | 0.684 | 0.305 | 0.459 | 0.477 | 0.236 | 0.215 | 0.318 | 0.336 |  |
| H3255 | 0.723 | 0.836 | 0.811 | 0.746 | 0.853 | 0.505 | 0.538 | 0.571 | 0.549 | 0.539 | 1.02 | 0.845 | 0.833 | 0.727 | 0.708 | 0.898 | 0.861 | 0.895 | 0.806 | 0.733 |
| HARA | 0.856 | 0.971 | 0.966 |  | 0.601 | 0.695 | 0.651 |  | 0.785 | 0.85 | 0.84 | 0.903 | 0.871 | 0.585 | 0.452 | 0.237 | 0.342 | 0.364 | 0.219 |  |
| HCC-15 | 0.795 | 0.852 | 0.743 | 0.584 | 0.58 | 0.822 | 0.712 | 0.855 | 0.675 | 0.743 | 1 | 0.993 | 0.944 | 0.854 | 0.707 | 1.34 | 1.23 | 1.3 | 1.55 | 1.16 |
| HCC-44 | 0.766 | 0.828 | 0.71 | 0.54 | 0.599 | 0.992 | 1.01 | 1.01 | 1.02 | 1.18 |  |  |  |  |  | 1 | 1.04 | 1.02 | 1.15 | 1.1 |
| HCC-78 | 0.342 | 0.325 | 0.322 | 0.321 | 0.322 | 0.893 | 0.795 | 0.82 | 0.833 | 0.88 | 0.531 | 0.524 | 0.463 | 0.422 | 0.426 | 0.626 | 0.669 | 0.683 | 0.502 | 0.431 |
| HCC-366 | 0.528 | 0.412 | 0.117 | 0.0254 | 0.0545 | 0.306 | 0.344 | 0.359 | 0.364 | 0.387 | 0.948 | 0.812 | 0.197 | 0.073 | 0.0559 | 0.315 | 0.225 | 0.186 | 0.166 | 0.257 |
| HCC-827 | 0.948 | 0.867 |  | 0.791 | 0.615 | 0.678 | 0.741 | 0.672 | 0.647 | 0.627 | 0.991 | 0.948 |  | 0.594 | 0.62 | 0.206 | 0.154 | 0.279 | 0.24 | 0.187 |
| HOP-62 | 0.719 | 0.995 | 0.684 | 0.857 | 0.494 | 0.394 | 0.422 | 0.419 | 0.432 | 0.73 | 1.04 | 1.08 | 1.1 | 0.796 | 0.693 | 0.62 | 0.568 | 0.633 | 1.2 | 0.696 |
